In data set [1] the test system is laboratory mice, strain CD-1. Description: Open field test (locomotor activity, sedative effect). It counts as in vivo. Particulars: for overall pathway in open field: 0.3 mg/kg, 50 minutes. On the procedure: In the Experimental Part 1 were used adults (30-35 g) male laboratory mice, strain CD-1 from Velaz facility, Czech Republic. Mice were housed in plastic boxes with a 12-hour light cycle (lights on at 7:00 pm). Mice had free access to food and water.
Amphiphilic steroid compounds were dissolved in a solution of 3 g (2-hydroxypropyl)-β-cyclodextrin (CDX, Sigma-Aldrich) and 157 mg of citric acid ([…], Sigma-Aldrich) in 30 ml of distilled water, the pH was adjusted to 7.4 using sodium hydroxide (NaOH, Sigma-Aldrich). Thus there were prepared solutions of the four steroids for application rates of 0.1, 1, 10 and 100 mg/kg.
The efficacy of the studied compounds was compared to known NMDA antagonist is memantine (Sigma-Aldrich) at a dose of 5 mg/kg in rats, ketamine (Vétoquinol) at 10 mg/kg and dizocilpine (MK-801) (Sigma-Aldrich) at a dose of 0.3 mg/kg in mice. These three compounds were dissolved in saline (B Braun).
The substances at dose 0.1-100 mg/kg were administered before the test to mice intraperitoneally. As controls were used intact mice and mice that received CDX solution. Also, MK-801 (0.3 mg/kg) was used for comparison of effects of noncompetitive antagonist of NMDA receptors. From the experiment was evaluated overall track anywhere in the arena as an indicator of locomotor activity. In addition, it was judged a ten-minute segments track during each experiment. Based on these values, it was possible to determine the latency time of onset of action and changes in locomotor activity over time.
In this arrangement, the sedative effect of the studied compounds at the highest dose was evaluated. […] Over time was monitored locomotor activity and possible changes characterized by tremor, ataxia, restlessness, or sedation or general anesthesia (absence of response to stimuli, decreased muscle tone).

Data set [2] has as its target T1, NR1-1a/NR2B NMDA receptor (Rattus norvegicus, UniProt P35439+Q00960).
T1 construct: expressed in transfected cells; host or cells: HEK293 cells (ATCC CRL1573)
Description: Patch-clamp inhibition of glutamate-evoked currents at recombinant NMDA receptors in transfected HEK293 cells. It is filed as cell-based. On the procedure:
Transfected cells were identified by means of fluorescent green protein (GFP) fluorescence. Its genus was transfected together with the both receptor subunit genes.
Steroid-containing solutions were prepared from fresh solution (20 mmol·l^−1, of steroid dissolved in dimethyl sulfoxide, DMSO), which was added to the extracellular solution containing 1 mmol·l^−1 glutamic acid and 10 μmol·l^−1 of glycine. Identical concentrations of DMSO were added to all other extracellular solutions.
Current responses produced by extracellular application of glutamic acid solution (1 mmol·l^−1) were measured from the whole cell by patch-clamp technique, which is used for the study of transport of charged particles through model and also natural biological membranes. The currents were measured at membrane potential maintained at −60 mV and +60 mV.
Same amounts (0.3 μg) of cDNA coding NR1, NR2 and GFP (green fluorescent protein) (pQBI 25, Takara, Japan) were mixed with 0.9 μl of Matra-A Reagent (IBA, Göttingen, Germany) and added to confluent HEK293 cells cultivated in v 24-pit cultivating plate. After trypsination, the cells were re-suspended in Opti-MEM® I containing 1% fetal bovine serum. Subsequently, 20 mmol·l^−1 MgCl2, 1 mmol l^−1 D,L-2-amino-5-phosphonopentanoic acid, 3 mmol·l^−1 kynurenic acid was added to the mixture and cells were inoculated on the polylysine-coated glass plates having 25 mm in diameter. The following genes coding NMDA receptor subunits were used for transfection: NR1-1 a (GenBank accession No. U08261) and NR2B (GenBank accession No. M91562).
HEK293 Cultured cells were used for electrophysiological investigations with a latency of 16-40 h after transfection. Whole-cell currents were measured by patch-clamp amplifier (Axopatch 1D; Axon Instruments, Inc. Foster City, USA) after capacitance and serial resistance (<10 MΩ) compensation to 80-90%. Agonist-induced responses were filtered to 1 kHz (8-pole Bessel filter; Frequency Devices, Haverhill, USA), digitized with sampling frequency of 5 kHz and analyzed by pClamp version 9 software (Axon Instruments, USA). […] Extracellular solution (ECS) contained 160 mmol·l^−1 sodium chloride, 2.5 mmol·l^−1 potassium chloride, 10 mmol·l^−1 HEPES, 10 mmol·l^−1 glucose, 0.2 mmol·l^−1 EDTA a 0.7 mmol·l^−1 calcium chloride (pH adjusted to 7.3 by sodium hydroxide solution). Glycine was added to both testing and control solution. Moreover, bicuculline (10 μmol·l^−1) and tetrodotoxin (0.5 μmol·l^−1) was added to hippocampal cultures. Steroid-containing solutions were prepared from fresh solution (20 mmol·l^−1) of steroid dissolved in dimethyl sulfoxide (DMSO). Same concentrations of DMSO were used in all extracellular solutions. Control and experimental solutions were applied via microprocessor-controlled perfusion system with approx. rate of solution exchange in areas adjacent to cells reaching ˜10 ms.
Current responses produced by 100 μmol·l^−1 of NMDA (in the case of hipocampal neurones), or by 1 mmol·l^−1 of glutamate (on recombinant NMDA receptors) were measured at membrane potential maintained at −60 mV. […] Relative effect of steroid-induced inhibition was used for calculating IC50.

Setting [3] is: HEK293, read-out: Mean % change ± SD.
Where [4] appears, read: calculated from relative steroid-induced inhibition, Hill's coefficient 1.2, read-out: IC50.
[5] abbreviates: steroid concentration 3 μmol·l^−1, 1 mmol·l^−1 glutamate, −60 mV.

Counter-ions that a name gives are not always drawn. Like-named read-outs stand apart in the source and are kept apart here.

T1 sequence (Q00960 27-1482, other chains not shown): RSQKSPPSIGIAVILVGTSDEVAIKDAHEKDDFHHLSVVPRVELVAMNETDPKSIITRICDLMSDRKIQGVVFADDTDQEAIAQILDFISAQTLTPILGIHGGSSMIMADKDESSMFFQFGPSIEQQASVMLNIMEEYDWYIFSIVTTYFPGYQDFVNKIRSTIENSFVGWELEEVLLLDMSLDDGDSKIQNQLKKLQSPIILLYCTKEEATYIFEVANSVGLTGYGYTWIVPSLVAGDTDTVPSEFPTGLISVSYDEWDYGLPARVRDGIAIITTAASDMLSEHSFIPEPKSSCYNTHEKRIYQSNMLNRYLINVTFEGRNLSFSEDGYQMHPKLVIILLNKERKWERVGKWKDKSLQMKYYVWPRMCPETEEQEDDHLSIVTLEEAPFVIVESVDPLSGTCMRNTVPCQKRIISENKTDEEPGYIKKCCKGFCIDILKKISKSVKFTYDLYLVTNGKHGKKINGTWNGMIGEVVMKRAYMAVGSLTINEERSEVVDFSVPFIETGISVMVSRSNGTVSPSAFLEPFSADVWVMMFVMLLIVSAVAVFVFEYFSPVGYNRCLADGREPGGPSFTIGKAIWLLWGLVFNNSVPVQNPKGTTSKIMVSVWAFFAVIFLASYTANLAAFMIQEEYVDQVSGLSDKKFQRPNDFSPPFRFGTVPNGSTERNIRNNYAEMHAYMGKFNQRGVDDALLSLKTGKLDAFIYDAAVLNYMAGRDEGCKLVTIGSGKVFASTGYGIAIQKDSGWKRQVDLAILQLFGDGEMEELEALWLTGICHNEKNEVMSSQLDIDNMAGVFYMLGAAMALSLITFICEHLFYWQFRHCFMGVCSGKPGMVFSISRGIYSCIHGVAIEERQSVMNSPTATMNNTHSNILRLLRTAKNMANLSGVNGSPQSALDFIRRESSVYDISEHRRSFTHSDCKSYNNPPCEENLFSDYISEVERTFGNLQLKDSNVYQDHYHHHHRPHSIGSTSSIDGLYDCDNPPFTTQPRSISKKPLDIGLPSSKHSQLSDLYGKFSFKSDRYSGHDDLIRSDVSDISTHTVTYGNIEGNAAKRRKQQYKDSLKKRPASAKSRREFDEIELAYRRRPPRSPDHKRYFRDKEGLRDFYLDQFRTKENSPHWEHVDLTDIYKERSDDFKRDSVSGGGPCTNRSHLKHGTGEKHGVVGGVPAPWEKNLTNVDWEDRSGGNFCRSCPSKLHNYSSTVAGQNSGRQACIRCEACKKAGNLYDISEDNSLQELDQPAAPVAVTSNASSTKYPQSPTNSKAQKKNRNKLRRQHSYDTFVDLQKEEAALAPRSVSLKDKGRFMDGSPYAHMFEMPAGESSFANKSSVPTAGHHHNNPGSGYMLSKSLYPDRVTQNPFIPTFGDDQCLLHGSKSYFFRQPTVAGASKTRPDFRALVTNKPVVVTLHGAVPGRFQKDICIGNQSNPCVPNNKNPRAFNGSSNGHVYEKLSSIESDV

`C[C@H]1CC[C@H]2[C@@H]3CC[C@@H]4C[C@H](OC(=O)CC(=O)O)CC[C@]4(C)[C@H]3CC[C@]12C` returned a melting point of 158 to 161.2 °C.

`COC(=O)[C@@]1(C)CC[C@H]2[C@@H](CC[C@@H]3C[C@H](OS(=O)(=O)O)CC[C@@]32C)C1` (as salt: sulfate) [Compound 40, Methyl (2S,4aS,4bS,7R,8aR,10aS)-2,4b-dimethyl-7-(sulfooxy)tetradecahydrophenanthren-2-carboxylate] had a melting point of 115 to 118 °C.

For the molecule `CC12CCCCC1C1CCC3CC(OS(=O)(=O)O)CCC3(C)C1CC2` (as salt: salt) [Compound 101, Pyridinium (2R,4aS,4bS,6aS,10bS,6aS,12aR)-4a,6a-dimethyloctadecahydrochrysen-2-yl 2-sulfate], the melting point was 173 to 174 °C.

In the case of `COC(=O)C1(C)CCC2C(CCC3CC(OS(=O)(=O)O)CCC32C)C1C` (as salt: salt) [Compound 22, Pyridinium (2R,4aS,7S,8S,10aR)-7-(methoxycarbonyl)-4a,7,8-trimethyltetra-decahydrophenanthren-2-yl 2-sulfate], the melting point was in the range of 145 to 147 °C.

Consider `C[C@]12CC[C@@H](OS(=O)(=O)O)C[C@H]1CC[C@@H]1[C@@H]2CC[C@@]2(C)[C@H]1CCC2(F)F` (as salt: salt) [Compound 95, Pyridinium (3R,5R,8R,9S,10S,13S,14S)-17,17-difluoro-10,13-dimethylhexadecahydro-1H-cyclopenta[a]phenanthren-3-yl 3-sulfate], for which the melting point was in the range of 185 to 187 °C.

With `C[C@]12CC[C@@H](OC(=O)CCC(=O)O)C[C@H]1CC[C@H]1CCCC[C@@H]12` [Compound 9, 4-(((2R,4aS,4bS,8aR,10aR)-4a-Methyltetradecahydrophenanthren-2-yl)oxy)-4-oxobutanoic Acid], the melting point lay in the range of 131 to 133 °C.

Consider `COC[C@@]1(C)CC[C@H]2[C@@H](CC[C@@H]3C[C@H](OC(=O)CCC(=O)O)CC[C@@]32C)C1` [Compound 45, 4-(((2R,4aS,4bS,7S,8aS,10aR)-7-(Methoxymethyl)-4a,7-dimethyltetradecahydrophenanthren-2-yl)oxy)-4-oxobutanoic acid], for which the melting point fell in the range of 107 to 109 °C.

Regarding `C[C@]12N[C@H](Cc3ccccc31)c1ccccc12` [dizocilpine, reference compound], the figures for the “overall pathway in open field” value in data set [1] (vs CDX control group) and in data set [1] (vs intact animals (p=0.0653)) were “significant increases” and “tendency to increasement”, respectively. Besides, the “time course of locomotor activity” value in data set [1] (dizocilpine 0.3 mg/kg, ten-minute sections) is “gradual increase”. In addition, in data set [1] (dizocilpine 0.3 mg/kg, vs two control groups), the total locomotor activity result is on record as “significantly higher”.

In the case of `C[C@]12CC[C@@H](OS(=O)(=O)O)C[C@H]1CC[C@@H]1[C@@H]2CC[C@@]2(C)[C@H]1CCC2(F)F` [Compound 95, Pyridinium (3R,5R,8R,9S,10S,13S,14S)-17,17-difluoro-10,13-dimethylhexadecahydro-1H-cyclopenta[a]phenanthren-3-yl 3-sulfate], the IC50 in data set [2] amounted to 7 µM. Moreover, the inhibition at 10 µM in data set [2] (setting [3]) is 61.2 ± 5.1%.

Regarding `C/C=C1/CC[C@H]2[C@@H]3CC[C@@H]4C[C@H](NC(=O)CC(=O)O)CC[C@]4(C)[C@H]3CC[C@]12C` [Compound 155, 3-(((3R,5R,8R,9S,10S,13S,14S,Z)-17-Ethylidene-10,13-dimethylhexadecahydro-1H-cyclopenta[a]phenanthren-3-yl)amino)-3-oxopropanoic acid], the IC50 in data set [2] was 8.7 µM. For the same molecule, the inhibition at 10 µM in data set [2] (setting [3]) was found to be 54.4 ± 5%.

In the case of “Pyridinium (3R,5R,8R,9S,10S,13S,14S)-10,13-dimethyl-17-methylenehexadecahydro-1H-cyclopenta[a]phenanthren-3-yl 3-sulfate [Compound 116]”, the IC50 in data set [2] (setting [4]) is 1.4 µM. Further, the “Mean % change ± SD” value in data set [2] (setting [5]) is 68.3 ± 4.3%.

Turning to `C=C1CC[C@H]2[C@@H]3CC[C@@H]4C[C@H](OC(=O)C[N+](C)(C)C)CC[C@]4(C)[C@H]3CC[C@]12C` [Compound 76, 2-(((3R,5R,8R,9S,10S,13S,14S)-10,13-Dimethyl-17-methylenehexadecahydro-1H-cyclopenta[a]phenanthren-3-yl)oxy)-N,N,N-trimethyl-2-oxoethan-1-ammonium chloride], the inhibition at 50 µM in data set [2] (setting [3]) came out at 50 ± 10%. Moreover, in data set [2] (setting [4]), the IC50 was 51.7 µM.

As to “Pyridinium (3R,5R,8R,9S,10S,13S,14S,17R)-10,13-dimethyl-17-(prop-1-en-2-yl)hexadecahydro-1H-cyclopenta[a]phenanthren-3-yl 3-sulfate [Compound 121]”, the IC50 in data set [2] (setting [4]) is 0.4 µM. The “Mean % change ± SD” value in data set [2] (steroid concentration 1 μmol·l^−1, 1 mmol·l^−1 glutamate, −60 mV) was found to be 71.7 ± 8.0%.

`C[C@@]12CCC[C@H]1[C@H]1CC[C@H]3C[C@H](OS(=O)(=O)O)CC[C@]3(C)[C@@H]1CC2.c1ccncc1` [Compound 127, Pyridinium (3R,5S,8R,9R,10S,13S,14S)-10,13-dimethylhexadecahydro-1H-cycopenta[a]phenanthren-3-yl 3-sulfate]: in data set [2] (setting [4]), the IC50 is 1.7 µM. Further, the “Mean % change ± SD” value in data set [2] (setting [5]) is reported as 34.0 ± 5.0%.

As to `COC(=O)C1(C)CCC2C(CCC3CC(OS(=O)(=O)O)CCC32C)C1C` [Compound 22, Pyridinium (2R,4aS,7S,8S,10aR)-7-(methoxycarbonyl)-4a,7,8-trimethyltetra-decahydrophenanthren-2-yl 2-sulfate], the inhibition at 100 µM in data set [2] (HEK293, steroid concentration 100 μmol·l^−1, 1 mmol·l^−1 glutamate, −60 mV, read-out: Mean % change ± SD) amounted to 40.9 ± 6.1%. Further, in data set [2] (setting [4]), the IC50 was 74.6 µM.

Take “Pyridinium (3R,5R,8S,9S,10S,13R,14S,17S)-10,13,17-trimethylhexadecahydro-1H-cyclopenta[a]phenanthren-3-yl 3-sulfate [Compound 117]”: in data set [2] (setting [4]), the IC50 is 1.1 µM. Besides, the “Mean % change ± SD” value in data set [2] (setting [5]) is on record as 73.1 ± 6.7%.

Regarding `C[C@]12CC[C@@H](OS(=O)(=O)O)C[C@H]1CC[C@@H]1[C@@H]2CC[C@@]2(C)[C@H]1CC[C@@]21CO1` [Compound 97, Pyridinium (3R,5R,8R,9S,10S,13S,14S,17S)-10,13-dimethylhexadecahydrospiro-[cyclopenta[a]phenanthren-17,2′-oxiran]-3-yl 3-sulfate], the inhibition at 100 µM in data set [2] (setting [3]) is 78 ± 8.9%. Further, in data set [2] (setting [4]), the IC50 is 45 µM.

As to `C[C@@]12CCC[C@H]1[C@@H]1CC[C@@H]3C[C@H](OC(=O)CC(=O)O)CC[C@]3(C)[C@H]1CC2` [Compound 51], the inhibition at 10 µM in data set [2] (setting [3]) came out at 42 ± 14%. Moreover, in data set [2] (setting [4]), the IC50 was 15.5 µM.

The values are drawn from US10017535B2, “Amphiphilic compounds with neuroprotective properties” (USTAV ORGANICKE CHEMIE A BIOCHEMIE AV CR, v.v.i., priority 2014, dated 2018).
